Results reported in patent publication US10206878B2, “Lyophilized formulation of TAT-NR2B9C with acetylation scavenger” (NoNO Inc., priority 2014, dated 2019).
No end group written: not given here.

Assay: Solubility study of TAT-NR2B9C, visual analysis
Type: physicochemical
Conditions: pH 6.5, 35, 50, 75 and 100 mg/mL, t=0 and t=24 hours
Description: Due to the relatively low Tg temperatures that would likely require a longer lyophilization cycle to dry, we looked at a wider range of standard bulking agents and looked to reduce the fill volume into the container closure system so that there would be a reduced volume of liquid to lyophilize. […] Samples were visually analyzed at 35, 50, 75 and 100 mg/mL. All solutions were clear at t=0 and t=24 hours. […] A wide range of quantities may be required in a vial, but 270 mg would provide a […] dose for a 100 kg patient. Assuming the target reconstitution concentration for patient administration is still 20 mg/mL (but can be from 1 mg/ml to 100 mg/ml), then a 20-mL lyophilization vial containing 270 mg of TAT-NR2B9C can be used with a reconstitution volume of 13.5 mL. Therefore, optimal volumes of liquid for lyophilization of TAT-NR2B9C in the vial would be between 2.5 mL and 10 mL.

YGRKKRRQRRRKLSSIESDV [TAT-NR2B9C]
solubility, visual (in Histidine+Trehalose): clear
solubility, visual (in Histidine): clear
